From ChEMBL document CHEMBL3286324, “Serendipitous oxidation product of BIBN4096BS: a potent CGRP receptor antagonist” (Bioorg Med Chem Lett, 2014) come the findings set out here.

pEC50, pIC50: −log10 of the molar value.

The target in assay [1] is T1, Calcitonin gene-related peptide type 1 receptor (Homo sapiens, UniProt O60894+Q16602). Nature of the assay: Antagonist activity at CGRP receptor in human SK-N-MC cells assessed as inhibition of alpha-CGRP-induced c-AMP formation after 15 mins by radioimmunoassay. It counts as cell-based.
In assay [2] the target is T1, Calcitonin gene-related peptide type 1 receptor. Put plainly: Displacement of [125I]-hCGRP from CGRP receptor in human SK-N-MC cell membranes after 2 hrs by scintillation counting analysis. (Loss of bound radioactivity is the signal in a displacement assay; it reports binding, not function.)

T1 sequence (Q16602 whole entry, one chain of several): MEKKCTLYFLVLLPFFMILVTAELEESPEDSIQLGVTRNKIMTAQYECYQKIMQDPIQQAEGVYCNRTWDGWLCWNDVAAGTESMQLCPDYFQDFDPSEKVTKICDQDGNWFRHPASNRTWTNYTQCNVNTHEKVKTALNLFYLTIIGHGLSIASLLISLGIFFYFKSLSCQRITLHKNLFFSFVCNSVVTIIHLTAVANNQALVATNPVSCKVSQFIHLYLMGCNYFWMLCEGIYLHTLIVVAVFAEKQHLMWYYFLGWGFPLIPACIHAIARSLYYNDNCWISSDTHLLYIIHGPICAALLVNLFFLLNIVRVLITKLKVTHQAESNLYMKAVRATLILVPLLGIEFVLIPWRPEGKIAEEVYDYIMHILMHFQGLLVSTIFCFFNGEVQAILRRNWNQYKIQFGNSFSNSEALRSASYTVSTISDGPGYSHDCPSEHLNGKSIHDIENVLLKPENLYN

In the case of `NCCCC[C@H](NC(=O)[C@@H](Cc1cc(Br)c(O)c(Br)c1)NC(=O)N1CCC(n2c(=O)[nH]c3ccccc3c2=O)CC1)C(=O)N1CCN(c2ccncc2)CC1`, in assay [1], the pEC50 (usually the EC50 on a negative log10 scale, so that one unit is a factor of ten) was 9.82.

Consider `NCCCC[C@H](NC(=O)[C@@H](Cc1cc2ccccc2s1)NC(=O)N1CCC(N2Cc3ccccc3NC2=O)CC1)C(=O)N1CCN(c2ccncc2)CC1`, for which the negative-log IC50 (pIC50) (in general, −log10 of the IC50, conventionally taken in molar units) in assay [2] was 7.60. In addition, the negative logarithm of the EC50 (pEC50) in assay [1] was 7.02.

On to `NCCCC[C@H](NC(=O)[C@@H](Cc1cc2ccccc2s1)NC(=O)N1CCC(n2c(=O)[nH]c3ccccc3c2=O)CC1)C(=O)N1CCN(c2ccncc2)CC1`, for which, in assay [2], the pIC50 was 8.57. In addition, in assay [1], the negative-log EC50 (pEC50) was 7.00.
